In brackets after ≈: the same amount, converted by molar mass.
Legend:
[1] = tested on: Klebsiella pneumoniae ATCC; assay: Planktonic susceptibility (MIC/MBC), 96-well broth microdilution; format: cell-based; settings: K. pneumonia; for MIC: planktonic, overnight 37°C in MHB
Protocol: (§1) All bacterial strains subjected to testing had been stored at −70°C prior to the experiment. The experiment commenced by streaking small amounts of the frozen bacterial samples onto Muller-Hinton agar (MHA) culture medium (BD Bacto, Oxoid, Basingstoke, UK Cat# X296B) and allowing for overnight incubation. Bacteria were re-cultured on MHA plates as required to confirm colony morphology and lack of contamination. Strains tested were P. aeruginosa ATCC 27853, E. coli ATCC 25922, Staphylococcus aureus ATCC 25923, MRSA ATCC 33591, S. epidermidis ATCC 12228, Klebsiella pneumoniae ATCC, P. mirabilis ATCC 35659, and 10 clinical isolates of MRSA from Foothills Hospital, Calgary, Canada. To prepare for susceptibility testing, a protocol modified from Lemire et al was used ([28]). MHB was swab-inoculated from MHA colonies and shake-incubated until turbid. Dilution of the broth with 0.9% saline was performed as necessary to match a 1.0 McFarland standard.
(§2) MIC and MBC assessments were conducted on all bacterial strains using 96-well microtiter plates. To prepare the wells for bacteria, serial dilutions of the antibacterial agents were carried out along the rows of two microtiter plates. The antibacterials were 2-fold diluted with Mueller-Hinton broth (MHB) in each column, reaching a volume of 75 µL. The 1.0 McFarland standard was diluted 15-fold in MHB, and 75 µL of inoculum was added to the wells treated with antibacterials, resulting in a total volume of 150 µL. The microtiter plates were covered and then shake-incubated overnight at 150 rpm and 37°C. MIC was determined based on visible bacterial growth. In cases of antibacterial opacity or ambiguous results, streaking of well cultures on MHA, overnight incubation, and subsequent comparison with controls were performed. MBC was determined by transferring 3 µL of culture from all MIC microtiter plate wells to 147 µL of Mueller-Hinton broth in fresh plates. These plates were shake-incubated overnight at 150 rpm and 37°C, and bacterial growth was visually inspected.

P. mirabilis ATCC 35659 = assay: as above; format: cell-based; settings: Proteus mirabilis; for MBC: ATCC35659; for MIC: ATCC35659, planktonic, overnight 37°C in MHB
Protocol: as §1, §2

[2] = tested on: Staphylococcus aureus ATCC 25923; assay: as above; format: cell-based; settings: Staphylococcus aureus, ATCC25923, S. aureus; for MIC: planktonic, overnight 37°C in MHB
Protocol: as §1, §2

MRSA ATCC 33591 = assay: as above; format: cell-based, methicillin-resistant S. aureus; settings: Staphylococcus aureus, MRSA reference strain; for MIC: planktonic, overnight 37°C in MHB
Protocol: as §1
as §2, with “In cases of antibacterial opacity or ambiguous results, streaking of well cultures on MHA, overnight incubation, and subsequent comparison with controls were performed.” left out

[3] = tested on: S. epidermidis ATCC 12228; assay: as above; format: cell-based, Staphylococcus epidermidis; settings: Staphylococcus epidermidis; for MBC: ATCC12228; for MIC: ATCC12228, planktonic, overnight 37°C in MHB
Protocol: as §1, §2

[4] = tested on: 10 clinical isolates of MRSA from Foothills Hospital, Calgary; assay: Planktonic susceptibility (MIC/MBC) of MRSA clinical isolates; format: cell-based, methicillin-resistant S. aureus; settings: Staphylococcus aureus
Protocol: as §1
as §2, with “In cases of antibacterial opacity or ambiguous results, streaking of well cultures on MHA, overnight incubation, and subsequent comparison with controls were performed.” left out

`O=C(Nc1ccc(Cl)c(C(F)(F)F)c1)Nc1ccc2nnsc2c1` [A] was tested, and the MBC [1] was over 5 mM, the MIC [1] was over 5 mM and the MBC (P. mirabilis ATCC 35659) was over 5 mM. The MIC (P. mirabilis ATCC 35659) was over 5 mM.

`O=C(Nc1ccc(Cl)c(Cl)c1)Nc1ccc2nnsc2c1` [B] showed an MBC [1] of over 5 mM, an MIC [1] of over 5 mM and an MBC (P. mirabilis ATCC 35659) of over 5 mM. For the same molecule, the MIC (P. mirabilis ATCC 35659) was over 5 mM, the MIC [2] was 9800 µM (≈ 3320 µg/mL) and the MIC (MRSA ATCC 33591) was 4900 µM (≈ 1660 µg/mL).

`O=C(Nc1ccc2nnsc2c1)Nc1cccc(S(F)(F)(F)(F)F)c1Cl` [EBP-24, 3-(1,2,3-benzothiadiazol-6-yl)-1-(2-chloro-3-pentafluoro-λ^6-sulfanyl)urea] gave an MBC [1] of over 5 mM, an MIC [1] of over 5 mM and an MBC (P. mirabilis ATCC 35659) of over 5 mM. The MIC (P. mirabilis ATCC 35659) was over 5 mM, the MBC [2] was 78 mM (≈ 33600 µg/mL) and the MIC [2] was 76 µM (≈ 32.7 µg/mL). It also gave an MIC (MRSA ATCC 33591) of 150 µM (≈ 64.6 µg/mL).

For `O=C(Nc1ccc(Cl)c(S(F)(F)(F)(F)F)c1)Nc1ccc2nnsc2c1` [EBP-25, 3-(1,2,3-benzothiadiazol-6-yl)-1-(4-chloro-3-pentafluoro-λ^6-sulfanyl)urea], the MBC [1] was over 5 mM, the MIC [1] was over 5 mM and the MBC (P. mirabilis ATCC 35659) was over 5 mM. For the same molecule, the MIC (P. mirabilis ATCC 35659) was over 5 mM, the MBC [2] was 78 mM (≈ 33600 µg/mL) and the MIC [2] was 9800 µM (≈ 4220 µg/mL).

Molecule `O=C(Nc1ccc(S(F)(F)(F)(F)F)cc1)Nc1ccc(S(F)(F)(F)(F)F)cc1` [EBP-33, 1,3-bis(4-pentafluoro-λ^6-sulfanyl)urea] has an MBC [1] of over 5 mM, an MIC [1] of over 5 mM and an MBC (P. mirabilis ATCC 35659) of over 5 mM. For the same molecule, the MIC (P. mirabilis ATCC 35659) was over 5 mM, the MBC [2] was 20 mM (≈ 9290 µg/mL) and the MIC [2] was 19 µM (≈ 8.82 µg/mL). The MBC (MRSA ATCC 33591) was 2400 µM (≈ 1110 µg/mL) and the MIC (MRSA ATCC 33591) was 4.8 µM (≈ 2.23 µg/mL).

For `O=C(Nc1ccc(Cl)c(C(F)(F)F)c1)Nc1ccc(Cl)c(C(F)(F)F)c1` [EBP-34, 1,3-di(4-chloro-3-(trifluoromethyl)phenyl)urea], the MBC [1] was over 5 mM, the MIC [1] was over 5 mM and the MBC (P. mirabilis ATCC 35659) was 0.625 mM (≈ 261 µg/mL). For the same molecule, the MIC (P. mirabilis ATCC 35659) was 0.625 mM (≈ 261 µg/mL), the MBC [2] was 0.01 mM (≈ 4.17 µg/mL) and the MIC [2] was 3.8 µM (≈ 1.59 µg/mL). For the same molecule, the MBC (MRSA ATCC 33591) was 61 µM (≈ 25.4 µg/mL), the MIC (MRSA ATCC 33591) was 1.9 µM (≈ 0.793 µg/mL) and the MBC [3] was 10 µM (≈ 4.17 µg/mL). It also gave an MIC [3] of 0.2 µM (≈ 0.0834 µg/mL), an MBC ([4]; MRSA #1 clinical isolate) of under 2 µM and an MIC ([4]; MRSA #1 clinical isolate) of 600 µM (≈ 250 µg/mL). The MBC ([4]; MRSA #2 clinical isolate) was under 2 µM, the MIC ([4]; MRSA #2 clinical isolate) was under 2 µM and the MBC ([4]; MRSA #3 clinical isolate) was 80 µM (≈ 33.4 µg/mL). For the same molecule, the MIC ([4]; MRSA #3 clinical isolate) was 80 µM (≈ 33.4 µg/mL), the MBC ([4]; MRSA #4 clinical isolate) was under 2 µM and the MIC ([4]; MRSA #4 clinical isolate) was under 2 µM. The MBC ([4]; MRSA #5 clinical isolate) was 10 µM (≈ 4.17 µg/mL), the MIC ([4]; MRSA #5 clinical isolate) was 10 µM (≈ 4.17 µg/mL) and the MBC ([4]; MRSA #6 clinical isolate) was 10 µM (≈ 4.17 µg/mL). For the same molecule, the MIC ([4]; MRSA #6 clinical isolate) was 10 µM (≈ 4.17 µg/mL), the MBC ([4]; MRSA #7 clinical isolate) was 10 µM (≈ 4.17 µg/mL) and the MIC ([4]; MRSA #7 clinical isolate) was under 2 µM. It also gave an MBC ([4]; MRSA #8 clinical isolate) of 5 µM (≈ 2.09 µg/mL), an MIC ([4]; MRSA #8 clinical isolate) of 5 µM (≈ 2.09 µg/mL) and an MBC ([4]; MRSA #9 clinical isolate) of under 2 µM. It also gave an MIC ([4]; MRSA #9 clinical isolate) of under 2 µM, an MBC ([4]; MRSA #10 clinical isolate) of 10 µM (≈ 4.17 µg/mL) and an MIC ([4]; MRSA #10 clinical isolate) of under 2 µM.

With `O=C(Nc1cc(S(F)(F)(F)(F)F)ccc1Cl)Nc1cc(S(F)(F)(F)(F)F)ccc1Cl` [EBP-36, 1,3-bis(2-chloro-5-pentafluoro-λ^6-sulfanyl)urea] the MBC [1] was over 5 mM, the MIC [1] was over 5 mM and the MBC (P. mirabilis ATCC 35659) was over 5 mM. The MIC (P. mirabilis ATCC 35659) was over 5 mM, the MBC [2] was 78 mM (≈ 41600 µg/mL) and the MIC [2] was 76 µM (≈ 40.5 µg/mL). For the same molecule, the MBC (MRSA ATCC 33591) was 9800 µM (≈ 5230 µg/mL) and the MIC (MRSA ATCC 33591) was 610 µM (≈ 325 µg/mL).

With `O=C(Nc1ccc(Cl)c(C(F)(F)F)c1)Nc1cc(S(F)(F)(F)(F)F)ccc1Cl` [EBP-37, 3-(4-chloro-3-(trifluoromethyl)phenyl)-1-(2-chloro-5-pentafluoro-λ^6-sulfanyl)urea] the MBC [1] was over 5 mM, the MIC [1] was over 5 mM and the MBC (P. mirabilis ATCC 35659) was 0.625 mM (≈ 297 µg/mL). The MIC (P. mirabilis ATCC 35659) was 0.625 mM (≈ 297 µg/mL), the MBC [2] was 4.9 mM (≈ 2330 µg/mL) and the MIC [2] was 1.2 µM (≈ 0.57 µg/mL). For the same molecule, the MBC (MRSA ATCC 33591) was 40 µM (≈ 19 µg/mL), the MIC (MRSA ATCC 33591) was 8 µM (≈ 3.8 µg/mL) and the MBC [3] was 40 µM (≈ 19 µg/mL). The MIC [3] was 8 µM (≈ 3.8 µg/mL), the MBC ([4]; MRSA #1 clinical isolate) was 1200 µM (≈ 570 µg/mL) and the MIC ([4]; MRSA #1 clinical isolate) was 10 µM (≈ 4.75 µg/mL). It also gave an MBC ([4]; MRSA #2 clinical isolate) of 10 µM (≈ 4.75 µg/mL), an MIC ([4]; MRSA #2 clinical isolate) of under 2 µM and an MBC ([4]; MRSA #3 clinical isolate) of 600 µM (≈ 285 µg/mL). The MIC ([4]; MRSA #3 clinical isolate) was 80 µM (≈ 38 µg/mL), the MBC ([4]; MRSA #4 clinical isolate) was 10 µM (≈ 4.75 µg/mL) and the MIC ([4]; MRSA #4 clinical isolate) was under 2 µM. The MBC ([4]; MRSA #5 clinical isolate) was 10 µM (≈ 4.75 µg/mL), the MIC ([4]; MRSA #5 clinical isolate) was 10 µM (≈ 4.75 µg/mL) and the MBC ([4]; MRSA #6 clinical isolate) was under 2 µM. For the same molecule, the MIC ([4]; MRSA #6 clinical isolate) was under 2 µM, the MBC ([4]; MRSA #7 clinical isolate) was 40 µM (≈ 19 µg/mL) and the MIC ([4]; MRSA #7 clinical isolate) was 10 µM (≈ 4.75 µg/mL). The MBC ([4]; MRSA #8 clinical isolate) was 10 µM (≈ 4.75 µg/mL), the MIC ([4]; MRSA #8 clinical isolate) was under 2 µM and the MBC ([4]; MRSA #9 clinical isolate) was 10 µM (≈ 4.75 µg/mL). The MIC ([4]; MRSA #9 clinical isolate) was 5 µM (≈ 2.38 µg/mL), the MBC ([4]; MRSA #10 clinical isolate) was 10 µM (≈ 4.75 µg/mL) and the MIC ([4]; MRSA #10 clinical isolate) was under 2 µM.

Reference: PMC11237694, “Novel pentafluorosulfanyl-containing triclocarban analogs selectively kill Gram-positive bacteria” (Microbiology Spectrum, 2024)
